Laboratory results published in patent US20130230459A1, “RADIOLABELLED mGluR2 PET LIGANDS” (Janssen Pharmaceuticals, Inc., priority 2010, published 2013).
Where “and” joins values, the source holds several entries; their conditions need not be identical. Equal entries are not always repeated.

Assays:
[1] = Biodistribution studies of 11C tracers; assay type: in vivo, Wistar rats; conditions: for SUV Blood / SUV Cerebellum / SUV Cerebrum total / SUV Cortex / SUV Hippocampus / SUV Striatum: normalized for body weight; for % ID present in the carcass: at all time points examined
Procedure: Biodistribution studies were carried out in healthy male Wistar rats (body weight 200-450 g) at 2 min, 30 min and 60 min post injection (p.i.) (n=3/time point). Rats were injected with about 11 MBq (2 min, 30 min analysis) or 22 MBq (60 min analysis) of the tracer via tail vein under anesthesia (2.5% isoflurane in O2 at 1 L/min flow rate) and sacrificed by decapitation at above specified time points. Blood and major organs were collected in tared tubes and weighed. The radioactivity in blood, organs and other body parts was measured using an automated gamma counter. The distribution of radioactivity in different parts of the body at different time points p.i. of the tracer was calculated and expressed as percentage of injected dose (% ID), and as percentage of injected dose per gram tissue (% ID/g) for the selected organs. % ID is calculated as cpm in organ/total cpm recovered. For calculation of total radioactivity in blood, blood mass was assumed to be 7% of the body mass.

[2] = target: T1, mGluR2 (Rattus norvegicus, UniProt P31421); assay: MicroPET imaging: baseline, blocking and chase experiments; assay type: in vivo, Wistar rats; conditions: chase 0.3 mg/kg i.v. ~30 min after [^11C]B-2
T1 construct: from tissue; host or cells: brain of living male Wistar rats (in vivo microPET)
T1 sequence (P31421 19-872): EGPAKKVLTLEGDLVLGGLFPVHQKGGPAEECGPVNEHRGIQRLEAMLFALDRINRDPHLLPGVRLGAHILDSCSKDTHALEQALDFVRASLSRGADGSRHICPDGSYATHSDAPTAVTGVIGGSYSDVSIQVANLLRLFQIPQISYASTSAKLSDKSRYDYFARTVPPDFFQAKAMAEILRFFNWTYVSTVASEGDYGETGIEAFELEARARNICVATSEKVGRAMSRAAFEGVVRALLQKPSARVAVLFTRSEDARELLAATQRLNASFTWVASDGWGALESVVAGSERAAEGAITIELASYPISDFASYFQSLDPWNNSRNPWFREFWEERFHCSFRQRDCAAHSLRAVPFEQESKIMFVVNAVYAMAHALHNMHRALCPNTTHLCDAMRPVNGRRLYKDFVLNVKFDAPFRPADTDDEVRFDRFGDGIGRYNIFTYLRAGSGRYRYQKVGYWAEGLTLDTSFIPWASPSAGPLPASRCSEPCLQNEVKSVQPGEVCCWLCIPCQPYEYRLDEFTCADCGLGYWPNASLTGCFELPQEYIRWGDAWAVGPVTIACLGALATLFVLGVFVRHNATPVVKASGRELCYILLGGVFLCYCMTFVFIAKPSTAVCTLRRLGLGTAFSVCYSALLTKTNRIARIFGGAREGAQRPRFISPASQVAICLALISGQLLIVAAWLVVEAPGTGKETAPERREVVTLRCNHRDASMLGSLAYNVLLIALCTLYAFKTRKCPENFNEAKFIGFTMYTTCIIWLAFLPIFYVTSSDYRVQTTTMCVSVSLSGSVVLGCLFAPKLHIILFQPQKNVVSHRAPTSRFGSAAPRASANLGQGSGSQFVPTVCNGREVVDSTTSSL
Procedure: Imaging experiments were performed on a Focus™ 220 microPET scanner (Concorde Microsystems, Knoxyille, Tenn., USA) using healthy male Wistar rats. During all scan sessions, animals were kept under gas anesthesia (2.5% isoflurane in O2 at 1 L/min flow rate).
Dynamic scans of 90 min were acquired. After reconstruction of the images (filtered back projection), they were spatially normalized to an in-house created [^11C]raclopride template of the rat brain in Paxinos coordinates. Automated and symmetric volumes of interest (VOIs) were generated for different brain regions (striatum, cortex, cerebellum, hippocampus, hypothalamus, thalamus, substantia nigra, nucleus accumbens and lateral globus pallidus) from which time-activity curves (TAC) were constructed for each individual scan, using PMOD software (v 3.1, PMOD Technologies Ltd.). The radioactivity concentration in the different brain regions was expressed as SUV as a function of time p.i. of the radiotracer by normalization for body weight of the animal and injected dose.
Rats were injected with 30-60 MBq of high specific activity formulation of [^11C]B-4, [^11C]B-2, [^11C]B-7, or [^11C]B-10 via the tail vein under isoflurane anesthesia (2.5% in O2 at 1 L/min flow rate).
For pretreatment and displacement experiments, compound A, compound B or ritanserin were dissolved and administered in a vehicle containing 20% (2-hydroxypropyl)-β-cyclodextrine and two equivalents hydrochloric acid. The ritanserin solution was protected from light.
A self-blocking study was done by subcutaneous (s.c.) administration of the authentic reference material (for [^11C]B-4) at ˜30 min prior to the radiotracer injection. Displacement studies were performed by i.v. injection of compound B at dose 4, 1, 0.3 and 0.1 mg/kg, compound A at dose 1 mg/kg or ritanserin at dose 0.3 mg/kg. All chase compounds were injected ˜30 min after radiotracer injection. A wash-out period of at least four days was maintained between the different pretreatment and displacement studies.
[^11C]B-4 was evaluated in vivo in three rats which were scanned dynamically for 90 min using μPET. The first rat was used for a baseline scan. The second rat was pretreated with authentic reference material B-4 via s.c. administration (dose 10 mg/kg) at 30 min prior to tracer injection. The third rat was used in a chase experiment and was injected i.v. with authentic reference material B-4 (dose 3 mg/kg) 30 min after tracer injection.
Two rats were injected with high specific activity tracer ([^11C]B-4, [^11C]B-2, [^11C]B-7, or [^11C]B-10) and scanned dynamically for 90 min. The first rat was scanned baseline, the second rat was injected i.v. with compound B (dose 4 mg/kg) 30 min after tracer injection. Table 16 gives an overview of the maximum and minimum SUV values in the chase experiment for the four studied tracers.
A chase experiment was performed for [^11C]B-2 with different doses of compound B (4, 1, 0.3, 0.1 mg/kg). The chase compound was injected i.v. 30 min after tracer injection. Table 17 gives an overview of the average SUV values before and after injection of the chase for the total brain.

## [11CH3]Oc1c(F)ccc(F)c1C1CCN(c2ccn3c(CC4CC4)nnc3c2C(F)(F)F)CC1 [[^11C]B-3, 3-(cyclopropylmethyl)-7-[4-[3,6-difluoro-2-[^11C]methoxyphenyl]-1-piperidinyl]-8-(trifluoromethyl)-1,2,4-triazolo[4,3-a]pyridine]
[1]; 2 min p.i.
  % ID Blood: 8.5 % ID and 8.5 ± 1.9 % ID
  % ID Carcass: 36.0 ± 0.7 % ID
  % ID Cerebellum: 0.17 % ID and 0.165 ± 0.009 % ID
  % ID Cerebrum total: 0.54 % ID and 0.536 ± 0.048 % ID
  % ID Cortex: 0.062 ± 0.009 % ID
  % ID Heart: 4.8 ± 0.4 % ID
  % ID Hippocampus: 0.017 ± 0.002 % ID
  % ID Intestines: 9.4 ± 0.8 % ID
  % ID Kidneys: 8.8 ± 0.7 % ID
  % ID Liver: 28.7 ± 2.1 % ID
  % ID Lungs: 3.7 ± 1.7 % ID
  % ID Rest of cerebrum: 0.457 ± 0.050 % ID
  % ID Spleen + Pancreas: 2.0 ± 0.1 % ID
  % ID Stomach: 1.5 ± 0.4 % ID
  % ID Striatum: 0.028 ± 0.002 % ID
  % ID Urine: 0.1 ± 0.0 % ID
  Total brain uptake: 0.75 % ID and 0.75 ± 0.0 % ID
  SUV Blood: 1.20 ± 0.03
  SUV Cerebellum: 1.54 and 1.54 ± 0.01
  SUV Cerebrum total: 1.09 ± 0.01
  SUV Cortex: 1.03 ± 0.00
  SUV Hippocampus: 0.85 ± 0.01
  SUV Striatum: 0.99 ± 0.00
[1]; 30 min p.i.
  % ID Blood: 2.6 ± 0.7 % ID
  % ID Carcass: 46.7 ± 7.8 % ID
  % ID Cerebellum: 0.142 ± 0.042 % ID
  % ID Cerebrum total: 0.489 ± 0.121 % ID
  % ID Cortex: 0.071 ± 0.031 % ID
  % ID Heart: 1.7 ± 0.7 % ID
  % ID Hippocampus: 0.019 ± 0.006 % ID
  % ID Intestines: 8.9 ± 1.4 % ID
  % ID Kidneys: 3.4 ± 1.0 % ID
  % ID Liver: 31.3 ± 9.7 % ID
  % ID Lungs: 0.5 ± 0.2 % ID
  % ID Rest of cerebrum: 0.373 ± 0.084 % ID
  % ID Spleen + Pancreas: 1.1 ± 0.3 % ID
  % ID Stomach: 3.8 ± 1.4 % ID
  % ID Striatum: 0.027 ± 0.007 % ID
  % ID Urine: 0.5 ± 0.1 % ID
  Total brain uptake: 0.64 ± 0.2 % ID
  SUV Blood: 0.40 ± 0.01
  SUV Cerebellum: 1.54 and 1.54 ± 0.04
  SUV Cerebrum total: 1.11 ± 0.03
  SUV Cortex: 1.00 ± 0.03
  SUV Hippocampus: 0.84 ± 0.02
  SUV Striatum: 1.15 ± 0.04
[1]; 60 min p.i.
  % ID Blood: 2.9 % ID and 2.9 ± 0.4 % ID
  % ID Carcass: 44.2 ± 10.9 % ID
  % ID Cerebellum: 0.142 ± 0.050 % ID
  % ID Cerebrum total: 0.499 ± 0.168 % ID
  % ID Cortex: 0.069 ± 0.027 % ID
  % ID Heart: 1.1 ± 0.6 % ID
  % ID Hippocampus: 0.023 ± 0.011 % ID
  % ID Intestines: 14.8 ± 1.7 % ID
  % ID Kidneys: 2.4 ± 0.9 % ID
  % ID Liver: 23.6 ± 12.9 % ID
  % ID Lungs: 0.7 ± 0.3 % ID
  % ID Rest of cerebrum: 0.371 ± 0.119 % ID
  % ID Spleen + Pancreas: 0.9 ± 0.3 % ID
  % ID Stomach: 9.6 ± 2.2 % ID
  % ID Striatum: 0.036 ± 0.014 % ID
  % ID Urine: 0.4 ± 0.1 % ID
  % ID present in liver and intestines: 38.4 % ID
  % ID present in the urinary system: 2.8 % ID
  Total brain uptake: 0.66 ± 0.2 % ID
  SUV Blood: 0.40 ± 0.01
  SUV Cerebellum: 1.84 ± 0.07
  SUV Cerebrum total: 1.38 ± 0.05
  SUV Cortex: 1.13 ± 0.04
  SUV Hippocampus: 1.11 ± 0.04
  SUV Striatum: 1.76 ± 0.07
[1]
  % ID present in the carcass: ~42 % ID

## Cc1nc2sccn2c(=O)c1CCN1CCC(=C(c2ccc(F)cc2)c2ccc(F)cc2)CC1 [Ritanserin, ritanserin, reference compound]
[2]
  effect of the chase compound on the binding of [^11C]B-2: no significant effect

## [11CH3]Oc1cccc(F)c1C1CCN(c2ccn3c(CC4CC4)nnc3c2Cl)CC1 [[^11C]B-6, 8-chloro-3-(cyclopropylmethyl)-7-[4-[2-fluoro-6-[^11C]methoxyphenyl]-1-piperidinyl]-1,2,4-triazolo[4,3-a]pyridine]
[1]; 2 min p.i.
  % ID Blood: 6.5 % ID and 6.5 ± 0.9 % ID
  % ID Carcass: 43.5 ± 1.4 % ID
  % ID Cerebellum: 0.17 % ID and 0.170 ± 0.012 % ID
  % ID Cerebrum total: 0.45 % ID and 0.446 ± 0.073 % ID
  % ID Cortex: 0.068 ± 0.015 % ID
  % ID Heart: 4.1 ± 0.1 % ID
  % ID Hippocampus: 0.019 ± 0.000 % ID
  % ID Intestines: 7.6 ± 0.5 % ID
  % ID Kidneys: 6.8 ± 0.7 % ID
  % ID Liver: 30.2 ± 0.9 % ID
  % ID Lungs: 1.8 ± 0.5 % ID
  % ID Rest of cerebrum: 0.359 ± 0.086 % ID
  % ID Spleen + Pancreas: 1.4 ± 0.1 % ID
  % ID Stomach: 1.3 ± 0.2 % ID
  % ID Striatum: 0.022 ± 0.002 % ID
  % ID Urine: 0.1 ± 0.0 % ID
  Total brain uptake: 0.65 % ID and 0.65 ± 0.1 % ID
  SUV Blood: 0.90 ± 0.01
  SUV Cerebellum: 1.62 ± 0.00
  SUV Cerebrum total: 1.00 ± 0.02
  SUV Cortex: 1.04 ± 0.00
  SUV Hippocampus: 0.86 ± 0.01
  SUV Striatum: 1.01 ± 0.01
[1]; 30 min p.i.
  % ID Blood: 2.9 ± 0.1 % ID
  % ID Carcass: 61.8 ± 2.1 % ID
  % ID Cerebellum: 0.201 ± 0.016 % ID
  % ID Cerebrum total: 0.723 ± 0.103 % ID
  % ID Cortex: 0.078 ± 0.020 % ID
  % ID Heart: 1.7 ± 0.2 % ID
  % ID Hippocampus: 0.028 ± 0.006 % ID
  % ID Intestines: 9.9 ± 1.4 % ID
  % ID Kidneys: 3.0 ± 0.4 % ID
  % ID Liver: 17.0 ± 1.1 % ID
  % ID Lungs: 0.8 ± 0.1 % ID
  % ID Rest of cerebrum: 0.580 ± 0.081 % ID
  % ID Spleen + Pancreas: 1.0 ± 0.2 % ID
  % ID Stomach: 2.3 ± 0.5 % ID
  % ID Striatum: 0.037 ± 0.005 % ID
  % ID Urine: 0.3 ± 0.1 % ID
  Total brain uptake: 0.95 ± 0.1 % ID
  SUV Blood: 0.40 ± 0.00
  SUV Cerebellum: 2.28 and 2.28 ± 0.01
  SUV Cerebrum total: 1.66 ± 0.02
  SUV Cortex: 1.47 ± 0.03
  SUV Hippocampus: 1.36 ± 0.01
  SUV Striatum: 1.70 ± 0.01
[1]; 60 min p.i.
  % ID Blood: 3.6 % ID and 3.6 ± 0.2 % ID
  % ID Carcass: 57.8 ± 1.9 % ID
  % ID Cerebellum: 0.155 ± 0.024 % ID
  % ID Cerebrum total: 0.597 ± 0.062 % ID
  % ID Cortex: 0.074 ± 0.021 % ID
  % ID Heart: 1.0 ± 0.1 % ID
  % ID Hippocampus: 0.024 ± 0.003 % ID
  % ID Intestines: 12.0 ± 1.1 % ID
  % ID Kidneys: 1.9 ± 0.3 % ID
  % ID Liver: 18.6 ± 1.0 % ID
  % ID Lungs: 0.6 ± 0.1 % ID
  % ID Rest of cerebrum: 0.468 ± 0.054 % ID
  % ID Spleen + Pancreas: 0.8 ± 0.0 % ID
  % ID Stomach: 4.3 ± 1.8 % ID
  % ID Striatum: 0.031 ± 0.003 % ID
  % ID Urine: 0.6 ± 0.1 % ID
  % ID present in liver and intestines: 30.6 % ID
  % ID present in the urinary system: 2.5 % ID
  Total brain uptake: 0.76 ± 0.1 % ID
  SUV Blood: 0.50 ± 0.00
  SUV Cerebellum: 1.57 ± 0.01
  SUV Cerebrum total: 1.24 ± 0.01
  SUV Cortex: 1.01 ± 0.01
  SUV Hippocampus: 1.02 ± 0.01
  SUV Striatum: 1.46 ± 0.01
[1]
  % ID present in the carcass: ~54 % ID
